Patent publication US10689343B2, “Inhibitors of tryptophan 2,3-dioxygenase” (NETHERLANDS TRANSLATIONAL RESEARCH CENTER B.V., priority 2016, dated 2020)
Where “and” joins values, the source holds several entries; their conditions need not be identical. Equal values may be shown once.

Assays:
Recombinant TDO = biological target: T1, Recombinant TDO (Homo sapiens, UniProt P48775); assay: Biochemical assay for TDO (NFK GreenScreen); details: 50 nM TDO, 200 μM L-tryptophan
T1 construct: Recombinant TDO (Seegers, N., et al.) and all other assay components were diluted in TDO reaction buffer
T1 sequence (P48775 whole entry): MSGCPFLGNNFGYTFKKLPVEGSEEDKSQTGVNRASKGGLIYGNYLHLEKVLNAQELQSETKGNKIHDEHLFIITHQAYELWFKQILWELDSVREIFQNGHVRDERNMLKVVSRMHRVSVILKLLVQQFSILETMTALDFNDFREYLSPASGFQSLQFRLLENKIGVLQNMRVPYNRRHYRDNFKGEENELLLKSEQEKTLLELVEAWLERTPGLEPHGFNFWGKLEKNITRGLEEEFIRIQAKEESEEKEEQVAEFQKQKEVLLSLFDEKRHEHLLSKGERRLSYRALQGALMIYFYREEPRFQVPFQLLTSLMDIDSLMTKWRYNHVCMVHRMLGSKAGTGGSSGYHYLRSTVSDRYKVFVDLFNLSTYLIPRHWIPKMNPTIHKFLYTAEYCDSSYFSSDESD
Method: Biochemical Assay for TDO
The NFK GreenScreen™ assay technology was also used to determine the inhibitory activity of compounds on TDO (Seegers, N., et al., J. Biol. Screen. 19: 1266; 2014). Compounds were serially diluted in DMSO and finally in TDO reaction buffer, consisting of 100 mM NaH2PO4, pH 7.0, supplemented with 0.02% Tween-20 (cat. No. P7949; Sigma Aldrich). Recombinant TDO (Seegers, N., et al.) and all other assay components were diluted in TDO reaction buffer. 10 μl of compound solution and 20 μl of enzyme solution supplemented with 200 μM ascorbic acid were combined in the well of a black 384-well plate (cat. no. 3573; Corning, Corning, N.Y., USA), and incubated for 60 min at room temperature. Subsequently, 10 μl of 0.8 mM of the substrate L-tryptophan was added, i.e., the final concentration of L-tryptophan was 200 μM. The DMSO concentration in the assay was 0.3%. The concentration of TDO was 50 nM. Incubation was continued for 15 min at room temperature. Then, 10 μl of NFK Green™ (NTRC, Oss, The Netherlands) was added, the plate was sealed, and the reaction was developed for 3 hours at 37° C. To determine the production of N-formyl kynurenine (NFK), the seal was removed and fluorescence was read on an EnVision multimode reader (Perkin Elmer, Waltham, Mass., USA). IC50 were calculated using XLfit™ software (ID Business Solutions, Ltd., Surrey, U.K.).

[1] = biological target: T2, TDO in SW48 colorectal carcinoma cells (Homo sapiens, UniProt P48775); assay: Cell-based assay for TDO in SW48 colorectal carcinoma cells (NFK GreenScreen); details: 18 hours with L-tryptophan, read-out: IC50 on TDO in cells
T2 construct: Endogenous expression of TDO has been determined in a variety of cancer cell lines; host or cells: SW48 colorectal carcinoma cells
T2 sequence (P48775 whole entry): as above
Method: The biological activity of TDO inhibitors can be measured by applying above detection methods to cells that are treated with test compound. Endogenous expression of TDO has been determined in a variety of cancer cell lines (Pilotte et al.; Seegers, et al.), or TDO can be expressed in cells that lack endogenous TDO by transfection of an expression vector containing TDO cDNA. […] A preferred assay is the cell-based NFK GreenScreen™ assay (Seegers et al, supra), which measures the cellular inhibitory activity of compounds on TDO. […] No. V9920). Cell-Based Assay for TDO The NFK GreenScreen™ assay technology was also used to determine the inhibitory activity of compounds on TDO in SW48 colorectal carcinoma cells (Seegers, N., et al., J. Biol. Screen. 19: 1266; 2014). […] Compounds were dissolved in DMSO and diluted in RPMI 1640. Final DMSO concentration in the assay was 0.4% (v/v). Eight thousand cells per well in 40 μl were seeded in a black 384-well tissue plate (cat. No. 781086; […] To determine NFK levels, 12 μl NFK Green™ (NTRC, Oss, The Netherlands) was added to each well, and the plate was sealed and incubated for 4 hours at 37° C. Fluorescence was measured on an EnVision multimode reader (Perkin Elmer, Waltham, Mass., USA).

CYP3A4 = CYP3A4 (Homo sapiens, UniProt P08684); assay: P450-Glo CYP3A4 luciferin isopropylacetal (Luc-IP) assay
Sequence of CYP3A4 (P08684 whole entry): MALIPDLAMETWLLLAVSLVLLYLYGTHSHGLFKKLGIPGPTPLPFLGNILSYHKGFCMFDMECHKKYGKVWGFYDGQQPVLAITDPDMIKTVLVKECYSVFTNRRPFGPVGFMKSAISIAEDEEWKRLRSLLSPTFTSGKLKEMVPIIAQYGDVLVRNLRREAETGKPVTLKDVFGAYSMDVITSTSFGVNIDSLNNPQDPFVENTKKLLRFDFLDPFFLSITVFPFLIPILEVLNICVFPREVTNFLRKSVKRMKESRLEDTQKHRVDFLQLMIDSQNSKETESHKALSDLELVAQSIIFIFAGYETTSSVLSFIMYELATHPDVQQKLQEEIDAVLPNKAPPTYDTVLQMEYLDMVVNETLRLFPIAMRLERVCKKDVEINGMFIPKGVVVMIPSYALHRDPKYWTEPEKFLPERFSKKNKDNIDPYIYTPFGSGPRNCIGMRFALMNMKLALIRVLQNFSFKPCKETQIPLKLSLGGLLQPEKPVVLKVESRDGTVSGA

CYP2D6 = CYP2D6 (Homo sapiens, UniProt P10635); assay: P450-Glo CYP2D6 Luc-IP assay
Sequence of CYP2D6 (P10635 whole entry): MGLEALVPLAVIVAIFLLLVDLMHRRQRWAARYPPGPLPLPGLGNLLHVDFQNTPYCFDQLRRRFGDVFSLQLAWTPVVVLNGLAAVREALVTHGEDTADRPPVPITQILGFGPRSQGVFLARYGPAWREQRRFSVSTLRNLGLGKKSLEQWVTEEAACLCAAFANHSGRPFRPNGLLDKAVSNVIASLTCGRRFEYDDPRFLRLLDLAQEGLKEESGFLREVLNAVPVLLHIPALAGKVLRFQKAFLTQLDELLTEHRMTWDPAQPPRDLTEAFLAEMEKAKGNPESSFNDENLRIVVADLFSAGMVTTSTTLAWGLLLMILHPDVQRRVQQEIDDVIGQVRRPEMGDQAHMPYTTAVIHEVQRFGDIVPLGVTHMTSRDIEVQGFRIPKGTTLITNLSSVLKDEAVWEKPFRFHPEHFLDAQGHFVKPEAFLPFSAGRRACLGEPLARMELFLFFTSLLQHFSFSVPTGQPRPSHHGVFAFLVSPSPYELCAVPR

| SMILES | IC50 (Recombinant TDO) | IC50 [1] | IC50 (CYP3A4) | IC50 (CYP2D6) |
| --- | --- | --- | --- | --- |
| CN(C)CC(O)CNC(=O)c1ccc(-c2c[nH]c3cc(F)ccc23)cc1 (centres unmarked) [Example 78, N-[3-(dimethylamino)-2-hydroxy-propyl]-4-(6-fluoro-1H-indol-3-yl)benzamide] | < 1000 nM | ≤ 200 nM | > 10000 nM | > 10000 nM |
| CN1CCCC(NC(=O)c2ccc(-c3c[nH]c4cc(F)ccc34)cc2Cl)C1 (centres unmarked) [Example 68, 2-Chloro-4-(6-fluoro-1H-indol-3-yl)-N-(1-methyl-3-piperidyl)benzamide] | < 1000 nM | ≤ 200 nM | 5000 to 10000 nM | > 10000 nM |
| O=C(NCCN1CCCCC1)c1ccc(-c2c[nH]c3cc(F)ccc23)cc1 [Example 46, 4-(6-Fluoro-1H-indol-3-yl)-N-[2-(1-piperidyl)ethyl]benzamide] | < 1000 nM | ≤ 500 nM and 200 to 500 nM | 5000 to 10000 nM | > 10000 nM |
| CN(C)CCCNC(=O)c1ccc(-c2c[nH]c3cc(F)ccc23)cc1Cl [Example 52, 2-Chloro-N-[3-(dimethylamino)propyl]-4-(6-fluoro-1H-indol-3-yl)benzamide] | < 1000 nM | ≤ 200 nM | > 10000 nM | > 10000 nM |
| COc1cc(-c2c[nH]c3cc(F)ccc23)ccc1C(=O)NCCCN(C)C [Example 137, N-[3-(dimethylamino)propyl]-4-(6-fluoro-1H-indol-3-yl)-2-methoxy-benzamide] | < 1000 nM | ≤ 200 nM | > 10000 nM | > 10000 nM |
| O=C(NCCO)c1ccc(-c2c[nH]c3cc(F)ccc23)cc1 [Example 10, 4-(6-Fluoro-1H-indol-3-yl)-N-(2-hydroxyethyl)benzamide] | < 1000 nM | ≤ 500 nM and 200 to 500 nM | > 10000 nM | 5000 to 10000 nM |
| COc1cc(-c2c[nH]c3cc(F)ccc23)ccc1C(=O)N[C@H]1CCCNC1 [Example 75, 4-(6-Fluoro-1H-indol-3-yl)-2-methoxy-N-[(3S)-3-piperidyl]benzamide] | < 1000 nM | ≤ 200 nM | 5000 to 10000 nM | > 10000 nM |
| O=C(NCCN1C[C@H](O)[C@@H](O)C1)c1ccc(-c2c[nH]c3cc(F)ccc23)cc1Cl [Example 115, 2-Chloro-N-[2-[(3S,4S)-3,4-dihydroxypyrrolidin-1-yl]ethyl]-4-(6-fluoro-1H-indol-3-yl)benzamide] | < 1000 nM | ≤ 500 nM and 200 to 500 nM | > 10000 nM | > 10000 nM |
| CC(=O)NCCNC(=O)c1ccc(-c2c[nH]c3cc(F)ccc23)cc1 [Example 113, N-(2-acetamidoethyl)-4-(6-fluoro-1H-indol-3-yl)benzamide] | 1000 to 5000 nM | ≤ 500 nM and 200 to 500 nM | > 10000 nM | > 10000 nM |
| CC(=O)Nc1ccc(-c2c[nH]c3cc(F)ccc23)cc1 [Example 4, N-[4-(6-Fluoro-1H-indol-3-yl)phenyl]acetamide] | < 1000 nM | ≤ 500 nM and 200 to 500 nM | > 10000 nM | > 10000 nM |
| CC(N)CNC(=O)c1ccc(-c2c[nH]c3cc(F)ccc23)cc1Cl (centres unmarked) [Example 71, N-(2-aminopropyl)-2-chloro-4-(6-fluoro-1H-indol-3-yl)benzamide] | < 1000 nM | ≤ 200 nM | 5000 to 10000 nM | > 10000 nM |
| O=C(NCC(F)(F)F)c1c(F)cc(-c2c[nH]c3cc(F)ccc23)cc1F [Example 57, 2,6-Difluoro-4-(6-fluoro-1H-indol-3-yl)-N-(2,2,2-trifluoroethyl)benzamide] | < 1000 nM | ≤ 500 nM and 200 to 500 nM | 5000 to 10000 nM | 5000 to 10000 nM |
| O=C(N[C@H]1CCC[C@@H]1O)c1ccc(-c2c[nH]c3cc(F)ccc23)cc1 [Example 87, 4-(6-Fluoro-1H-indol-3-yl)-N-[(1S,2S)-2-hydroxycyclopentyl]benzamide] | < 1000 nM | ≤ 500 nM and 200 to 500 nM | > 10000 nM | > 10000 nM |
| COc1cc(-c2c[nH]c3cc(F)ccc23)ccc1C(=O)N[C@@H](C)CO [Example 136, 4-(6-Fluoro-1H-indol-3-yl)-N-[(1S)-2-hydroxy-1-methyl-ethyl]-2-methoxy-benzamide] | < 1000 nM | ≤ 500 nM and 200 to 500 nM | > 10000 nM | > 10000 nM |
| O=C(NC1CCCNC1)c1ccc(-c2c[nH]c3cc(F)ccc23)cc1 (centres unmarked) [Example 118, 4-(6-Fluoro-1H-indol-3-yl)-N-(3-piperidyl)benzamide] | < 1000 nM | ≤ 200 nM | > 10000 nM | > 10000 nM |
| N[C@H]1CCC[C@@H](C(=O)Nc2ccc(-c3c[nH]c4cc(F)ccc34)cc2)C1 [Example 103, (1R,3S)-3-amino-N-[4-(6-fluoro-1H-indol-3-yl)phenyl]cyclohexanecarboxamide] | < 1000 nM | ≤ 500 nM and 200 to 500 nM | > 10000 nM | > 10000 nM |
| O=C(N[C@@H]1CCCC[C@H]1O)c1ccc(-c2c[nH]c3cc(F)ccc23)cc1 [Example 50, 4-(6-Fluoro-1H-indol-3-yl)-N-[(1R,2R)-2-hydroxycyclohexyl]benzamide] | < 1000 nM | ≤ 500 nM and 200 to 500 nM | > 10000 nM | > 10000 nM |
| Cn1cc(CCC(=O)Nc2ccc(-c3c[nH]c4cc(F)ccc34)cc2)cn1 [Example 107, N-[4-(6-fluoro-1H-indol-3-yl)phenyl]-3-(1-methylpyrazol-4-yl)propanamide] |  | ≤ 500 nM and 200 to 500 nM | > 10000 nM | > 10000 nM |
| CS(=O)(=O)N1CCCC(NC(=O)c2ccc(-c3c[nH]c4cc(F)ccc34)cc2)C1 (centres unmarked) [Example 120, 4-(6-Fluoro-1H-indol-3-yl)-N-(1-methylsulfonyl-3-piperidyl)benzamide] |  | ≤ 500 nM and 200 to 500 nM | > 10000 nM | > 10000 nM |
| Cc1cc(C(=O)N[C@H]2CCCNC2)ccc1-c1c[nH]c2cc(F)ccc12 [Example 130, 4-(6-Fluoro-1H-indol-3-yl)-3-methyl-N-[(3S)-3-piperidyl]benzamide] | < 1000 nM |  | 5000 to 10000 nM | > 10000 nM |
| O=C(CCc1ccccc1)Nc1ccc(-c2c[nH]c3cc(F)ccc23)cc1 [Example 96, N-[4-(6-fluoro-1H-indol-3-yl)phenyl]-3-phenyl-propanamide] | 1000 to 5000 nM |  | > 10000 nM | > 10000 nM |
| N#CCC(=O)Nc1ccc(-c2c[nH]c3cc(F)ccc23)cc1 [Example 32, 2-Cyano-N-[4-(6-fluoro-1H-indol-3-yl)phenyl]acetamide] | < 1000 nM |  | > 10000 nM | > 10000 nM |
| O=C(CC1CC1)Nc1ccc(-c2c[nH]c3cc(F)ccc23)cc1 [Example 28, 2-Cyclopropyl-N-[4-(6-fluoro-1H-indol-3-yl)phenyl]acetamide] | 1000 to 5000 nM |  | > 10000 nM | > 10000 nM |
| Nc1ccn(C(=O)c2ccc(-c3c[nH]c4cc(F)ccc34)cc2)n1 [Example 85, (3-Aminopyrazol-1-yl)-[4-(6-fluoro-1H-indol-3-yl)phenyl]methanone] | 1000 to 5000 nM |  | > 10000 nM | 5000 to 10000 nM |
| CCCC(C)NC(=O)c1ccc(-c2c[nH]c3cc(F)ccc23)cc1 (centres unmarked) [Example 22, 4-(6-Fluoro-1H-indol-3-yl)-N-(1-methylbutyl)benzamide] | < 1000 nM |  | > 10000 nM | > 10000 nM |
| O=C(NCC(F)(F)F)c1ccc(-c2c[nH]c3ccc(F)cc23)cc1 [Example 39, 4-(5-Fluoro-1H-indol-3-yl)-N-(2,2,2-trifluoroethyl)benzamide] | < 1000 nM |  | > 10000 nM | > 10000 nM |
| O=C(NOC[C@H](O)CO)c1ccc(-c2c[nH]c3cc(F)ccc23)cc1 [Example 67, N-[(2R)-2,3-dihydroxypropoxy]-4-(6-fluoro-1H-indol-3-yl)benzamide] | < 1000 nM |  | 5000 to 10000 nM | > 10000 nM |
